Test: Human HepG2 cell viability assay in 384 well format
Format: toxicity, cell-based
Set-up: dose 125 nL, time 70.5 hour; concentration not given beside the values
Conditions: HepG2 cells, read-out: Inhibition

Row | Structure (SMILES) | cytotoxicity at 70.5 h [%]
1 | Cn1ncc(N2CCOCC2)c(Cl)c1=O | -7.54
2 | Cc1cnc(CN2CCC(N(C)Cc3nnc(C)n3C)C2)cn1 (stereo unspecified) | -0.164
3 | CCCN1CCC(NCc2ccncc2)CC1 | -5.69
4 | Cc1ccc(NC(=O)c2nc(N3CCCCC3)ncc2Cl)cc1I | -7.45
5 | COc1cc(CN(C)C(=O)NCc2cccnc2OC)ccc1SC | -0.299
6 | Cc1ccc(C(=O)NCCCN(C)S(C)(=O)=O)c(=O)[nH]1 | -5.2
7 | O=C(c1cc2c([nH]c1=O)CCC2)N1CCCCCC1c1ccncc1 (stereo unspecified) | -6.24
8 | COc1cc(CN(C)C(=O)NCc2ccccn2)ccc1SC | 15.9
9 | COc1cc(CN(C)C(=O)NC2CC2)ccc1SC | -3.48
10 | COc1cc(CN(C)C(=O)NCC(=O)NC(C)C)ccc1SC | -1.54
11 | CSc1cc2c(cc1NC(=O)NCC(=O)N(C)C)OCCO2 | 0.952
12 | NCC1(c2cccc(C(F)(F)F)c2)CCCCC1 | -4.79
13 | Cc1cc(CN2CCc3nn(C)c(=O)cc3C2)no1 | -2.94
14 | CCS(=O)(=O)N1CCCC(c2nc3ccccc3n2C(C)C)C1 (stereo unspecified) | -3.94
15 | CC(CNC(=O)N1CCN(Cc2ccon2)CC1)Cc1cccs1 (stereo unspecified) | -2.44
16 | CC(=O)N(C)C1CCN(C(=O)NCC(C)Cc2cccs2)CC1 (stereo unspecified) | -2.57
17 | CC(C)(C)NC(=O)Cn1cc(C(N)=O)c(-c2ccccc2)n1 | -3.41
18 | CN1CCC(N(C)C(=O)CCc2ccc(F)c(F)c2)C1=O (stereo unspecified) | -6.34
19 | Oc1ncccc1-c1nc(-c2cccc(CN3CCOCC3)c2)no1 | -15.1
20 | Cc1cnc(-c2nc(-c3cccc(CN4CCOCC4)c3)no2)cn1 | -4.86
21 | Cc1n[nH]c(C)c1NC(=O)CN(CC(O)c1ccc(F)cc1)C1CC1 (stereo unspecified) | -3.36
22 | Cc1cc(NCC2(O)CCOCC2)nc2ccccc12 | -8.29

Row | Structure (SMILES) | cytotoxicity at 70.5 h [%]
23 | O=C(c1ccc2[nH]ccc2c1)N1CCCCC1c1nc[nH]n1 (stereo unspecified) | -5.67
24 | CC(C)(CNc1cc(F)ccc1F)S(C)(=O)=O | 0.249
25 | CSC1(CNc2ccc(Br)cn2)CCOCC1 | -2.33
26 | CN(C)C1(CNc2ncc(Br)cn2)CCOCC1 | -10.2
27 | O=C(c1ccc(F)c(F)c1)N1CCCCC1c1nc[nH]n1 (stereo unspecified) | -6.52
28 | CC(=O)N1CCC(CCNC(C)c2cc(C)cc(C)c2)CC1 (stereo unspecified) | 3.75
29 | CC(=O)N1CCC(CCNC(C)c2cc(F)cc(F)c2)CC1 (stereo unspecified) | -3.81
30 | Cc1cncc(C(=O)N2CCCCC2c2nc[nH]n2)c1 (stereo unspecified) | -4.36
31 | CC(CCSc1ccccc1)N1CCCN(C(N)=O)CC1 (stereo unspecified) | 28.8
32 | Cc1n[nH]c(C2CN(C(=O)c3ccn(C)c(=O)c3)CCO2)n1 (stereo unspecified) | 31.8
33 | O=C(Nc1nncs1)N(Cc1cccc(F)c1)C1CC1 | -5.56
34 | Cc1cc2c(o1)CC(C)(C)CC2NC(=O)CNC(=O)C1CC1 (stereo unspecified) | -2.04
35 | COc1cccc(CN(C(=O)NC2CC2)C2CCC(O)CC2)c1 (stereo unspecified) | -6.74
36 | CCN(C(=O)c1cc(C)nc2ccccc12)C1CC(=O)NC1=O (stereo unspecified) | -1.78
37 | O=C(c1ccncc1)N1CCn2c(nnc2-c2ccccc2)C1 | -6.68
38 | O=C(c1[nH]nc(C2CC2)c1Cl)N1CCN(S(=O)(=O)c2ccccc2)CC1 | 18.5
39 | O=C(Nc1ccnc2ccnn12)c1ccc(N2CCC(O)CC2)cc1 | 6.12
40 | CCC(NC(=O)NCc1cc(Cl)ccc1OC)c1noc(C)n1 (stereo unspecified) | 16
41 | CCC(NC(=O)Nc1ccc(OC)c(C)c1)c1noc(C)n1 (stereo unspecified) | 4.08
42 | O=C(c1ncoc1C1CCCO1)N1CCC2(CCCCC2)CC1 (stereo unspecified) | -3.26
43 | O=C(Nc1cccn(Cc2ccccc2)c1=O)c1ccncc1F | 14.1
44 | O=C(c1[nH]nc(C2CC2)c1Cl)N1CCN(C2CC2)CC1 | 0.431

Row | Structure (SMILES) | cytotoxicity at 70.5 h [%]
45 | CC(=O)NC(c1cc(F)ccc1F)C1CC1 (stereo unspecified) | -3.82
46 | Cc1nn(C)c(C)c1OCC(=O)N1CCCCC1 | -2.11
47 | COCCN(C)c1ccc(NCc2ccsc2)nc1 | -10.2
48 | Cc1cccc(C(=O)N2CCN(CCOC(C)C)CC2)n1 | -6.81
49 | CC(C)c1nc2c(n1C)CCN(CCCc1nc3ccccc3o1)C2 | -0.617
50 | CN(Cc1nccn1C)S(=O)(=O)c1cccc(C#N)c1 | -1.58
51 | CNC(=O)c1ccc(=O)n(Cc2csc(C(C)(C)C)n2)c1 | -18.4
52 | Cc1nc(C2(NCc3cccc(F)c3F)CCCCC2)no1 | -6.93
53 | COCC(C)(C)NS(=O)(=O)C1CS(=O)(=O)c2ccccc21 (stereo unspecified) | -17.4
54 | CCSc1ccc(NC(=O)NC(C)c2c(C)nn(C)c2C)cn1 (stereo unspecified) | -13.5
55 | CC(C)c1nc2c(n1C)CCN(CCS(=O)(=O)c1ccccc1)C2 | -12.4
56 | Cc1cnn(C2CCCN(C(=O)c3c(C)oc4nc[nH]c(=O)c34)C2)c1 (stereo unspecified) | -9.75
57 | Cc1oc2nc[nH]c(=O)c2c1C(=O)N1CCCC(n2cccn2)C1 (stereo unspecified) | -4.01
58 | CCS(=O)(=O)N1CCC(CSc2ccccc2)C1 (stereo unspecified) | -11.1
59 | Cn1cc(Br)cc1C(=O)NC1(C#N)CC1 | 15.5
60 | Cc1ccccc1C1CN(c2cnn(C)c(=O)c2Cl)CCO1 (stereo unspecified) | -1.35
61 | Cc1cccc(CNC2(CCO)CCOCC2)c1C | -2.52
62 | O=C(NC1CCCN(c2ccccc2F)C1)c1ccon1 (stereo unspecified) | -9.69
63 | CC1CN(C(=O)c2cc(=O)[nH]c3ccc(F)cc23)CCO1 (stereo unspecified) | 19.1
64 | CSCCC(C)NC(=O)N(C)Cc1cc(Cl)cn1C (stereo unspecified) | -10.9
65 | Cc1cccc(C(=O)N2CCCN(CCc3scnc3C)CC2)c1 | -10.5
66 | CCS(=O)(=O)CC(C)NC(=O)N(C)Cc1cc(Cl)cn1C (stereo unspecified) | -7.58

Row | Structure (SMILES) | cytotoxicity at 70.5 h [%]
67 | CN(Cc1nccn1C)S(=O)(=O)Cc1cccc(C#N)c1 | -12.6
68 | CC(NCC1CCN(CCO)CC1)c1ccc(F)c(Cl)c1 (stereo unspecified) | 0.00897
69 | CCN(Cc1ccccc1)S(=O)(=O)C1CCS(=O)(=O)CC1 | -10.9
70 | CC(=O)Nc1ccc(C(=O)N2CCSCC2c2ccc(C)o2)cc1 (stereo unspecified) | -4.02
71 | Cc1ccc(C2CSCCN2C(=O)c2ccoc2C)o1 (stereo unspecified) | -8.94
72 | CN(C(=O)CCN1CCCC1=O)c1cc(C#N)c2ccccc2n1 | 4.42
73 | N#Cc1ccc(F)c(CN2CCNC(=O)C2c2cccs2)c1 (stereo unspecified) | 18
74 | N#Cc1cccc(OCCN2CCNC(=O)C2c2cccs2)c1 (stereo unspecified) | -6
75 | Cc1ccc(S(=O)(=O)N2CCN(C)c3ccncc32)cc1F | -4.45
76 | CCOCCNC(=O)c1ccc(OC)cc1I | -6.65
77 | CN(CC(=O)NC1CC1)C(=O)c1csc(Br)c1 | -8.41
78 | CCOCC(=O)Nc1cccnc1-n1ccnc1C | -6.13
79 | O=S(=O)(NC1CCCCC12OCCO2)c1ccc2c(c1)OCCO2 (stereo unspecified) | -7.16
80 | N#Cc1ccc(OCCN2CCNC(=O)C2c2cccs2)cc1 (stereo unspecified) | -6.87
81 | Cc1ccc(C2CSCCN2C(=O)c2cnsn2)o1 (stereo unspecified) | -10.7
82 | Clc1ccc(Cc2nc(CNCCn3cccn3)cs2)cc1 | -1.63
83 | c1ccc(OCc2nc(CNCCn3cccn3)cs2)cc1 | 27
84 | COc1cccc(CNCc2cccnc2-n2cccn2)c1OC | 19.6
85 | CC(C)CCN1CCN(C(=O)c2ccc(=O)[nH]n2)CC1 | -7.24
86 | CC(C)c1nc(CNC2CCN(S(C)(=O)=O)CC2)cs1 | 20.3

— ChEMBL document CHEMBL3507680, “University of Dundee, Gates Library screen for HepG2 cell viability”
